Where only a bound is given, the exact number is not on record here.

This note sets out measurements from US9725449B2, “Tricyclic compounds as anticancer agents” (BRISTOL-MYERS SQUIBB COMPANY, priority 2015, dated 2017).

The target in this test is BRD4 (Homo sapiens, UniProt O60885). The test is described as follows: Time resolved fluorescence resonance energy transfer (TR-FRET) binding assay, bromodomain BRD4. To be noted: one of the FRET assays described; read-out: FRET BRD4 IC50.

On to `[2H]C([2H])([2H])c1nnn(C)c1-c1cnc2c3c(OC)nc(C(C)=O)cc3n([C@H](c3ncccc3F)C3CCOCC3)c2c1` [Example 308, 1-{8-[(S)-(3-Fluoropyridin-2-yl)(oxan-4-yl)methyl]-13-methoxy-5-[4-(^2H3)methyl-1-methyl-1H-1,2,3-triazol-5-yl]-3,8,12-triazatricyclo[7.4.0.0^2,^7]trideca-1(9),2(7),3,5,10,12-hexaen-11-yl}ethan-1-one], for which the IC50 is less than 10 nM.
Take `Cc1nnn(C)c1-c1cnc2c3cncc(S(C)(=O)=O)c3n(C(c3ccccc3)C3CCC(F)(F)CC3)c2c1` (stereo not drawn) [Example 289, 8-[(4,4-Difluorocyclohexyl)(phenyl)methyl]-5-(dimethyl-1H-1,2,3-triazol-5-yl)-10-methanesulfonyl-3,8,12-triazatricyclo[7.4.0.0^2,^7]trideca-1(13),2(7),3,5,9,11-hexaene]: the IC50 is less than 1500 nM.
As for `[2H]C([2H])([2H])c1nnn(C)c1-c1cnc2c3c(OC(C)C)ncc(S(C)(=O)=O)c3n([C@H](c3ccc(F)cc3)C3CCOCC3)c2c1` [Example 79, 8-[(S)-(4-Fluorophenyl)(oxan-4-yl)methyl]-10-methanesulfonyl-5-[4-(^2H3)methyl-1-methyl-1H-1,2,3-triazol-5-yl]-13-(propan-2-yloxy)-3,8,12-triazatricyclo[7.4.0.0^2,^7]trideca-1(13),2(7),3,5,9,11-hexaene], the IC50 is less than 1 nM.
In the case of “2-{8-[(3-Fluoropyridin-2-yl)(oxan-4-yl)methyl]-11-[4-(^2H3)methyl-1-methyl-1H-1,2,3-triazol-5-yl]-3,8,10-triazatricyclo[7.4.0.0^2,^7]trideca-1(9),2,4,6,10,12-hexaen-5-yl}propan-2-ol [Example 362]”, the IC50 was less than 10 nM.
With `[2H]C([2H])([2H])c1nnn(C)c1-c1cnc2c3c(N(C)CC)nccc3n([C@H](c3ccccc3)C3CCOCC3)c2c1` [Example 132, N-Ethyl-N-methyl-5-[4-(^2H3)methyl-1-methyl-1H-1,2,3-triazol-5-yl]-8-[(S)-oxan-4-yl(phenyl)methyl]-3,8,12-triazatricyclo[7.4.0.0^2,^7]trideca-1(13),2(7),3,5,9,11-hexaen-13-amine], the IC50 was less than 1 nM.
Next, `[2H]C([2H])([2H])Oc1ncc(S(C)(=O)=O)c2c1c1ncc(-c3c(C)noc3C([2H])([2H])[2H])cc1n2[C@H](c1ccc(F)cc1)C1CCOCC1` [Example 55, 8-[(S)-(4-Fluorophenyl)(oxan-4-yl)methyl]-10-methanesulfonyl-13-(^2H3)methoxy-5-[5-(^2H3)methyl-3-methyl-1,2-oxazol-4-yl]-3,8,12-triazatricyclo[7.4.0.0^2,^7]trideca-1(13),2(7),3,5,9,11-hexaene]: less than 1 nM; `[2H]C([2H])([2H])c1nnn(C)c1-c1cnc2c3c(OC)ncc(S(C)(=O)=O)c3n(C(c3ccc(F)cc3)C3CCC(F)(F)CC3)c2c1` (stereo in doubt) [Example 96, 8-[(R)-(4,4-Difluorocyclohexyl)(4-fluorophenyl)methyl]-10-methanesulfonyl-13-methoxy-5-[4-(^2H3)methyl-1-methyl-1H-1,2,3-triazol-5-yl]-3,8,12-triazatricyclo[7.4.0.0^2,^7]trideca-1(13),2(7),3,5,9,11-hexaene]: less than 1500 nM; `CC(=O)c1ccc(-c2ccc3c4ncc(-c5c(C)nnn5C)cc4n([C@H](c4ccccc4)C4CCOCC4)c3n2)s1` [Example 162, 1-{5-[5-(Dimethyl-1H-1,2,3-triazol-5-yl)-8-[(S)-oxan-4-yl(phenyl)methyl]-3,8,10-triazatricyclo[7.4.0.0^2,^7]trideca-1(9),2(7),3,5,10,12-hexaen-11-yl]thiophen-2-yl}ethan-1-one]: less than 10 nM.
As to `[2H]C([2H])([2H])c1nnn(C)c1-c1cnc2c3ccc(Cl)nc3n(C(c3ncccc3F)C3CCOCC3)c2c1` (stereo not drawn) [Example 246, 11-Chloro-8-[(3-fluoropyridin-2-yl)(oxan-4-yl)methyl]-5-[4-(^2H3)methyl-1-methyl-1H-1,2,3-triazol-5-yl]-3,8,10-triazatricyclo[7.4.0.0^2,^7]trideca-1(13),2(7),3,5,9,11-hexaene], the IC50 was less than 10 nM.
Next, `Cc1nnn(C)c1-c1cnc2c3ccnc(NCCO)c3n([C@H](c3ccccc3)C3CCOCC3)c2c1` [Example 11, 2-{[5-(Dimethyl-1H-1,2,3-triazol-5-yl)-8-[(S)-oxan-4-yl(phenyl)methyl]-3,8,11-triazatricyclo[7.4.0.0^2,^7]trideca-1(13),2(7),3,5,9,11-hexaen-10-yl]amino}ethan-1-ol]: less than 10 nM; `[2H]C([2H])([2H])c1nnn(C)c1-c1cnc2c3ccc(N4CCN(C(C)(C)C)CC4)nc3n([C@H](c3ccccc3)C3CCOCC3)c2c1` [Example 152, 11-(4-tert-Butylpiperazin-1-yl)-5-[4-(^2H3)methyl-1-methyl-1H-1,2,3-triazol-5-yl]-8-[(S)-oxan-4-yl(phenyl)methyl]-3,8,10-triazatricyclo[7.4.0.0^2,^7]trideca-1(9),2(7),3,5,10,12-hexaene]: less than 10 nM; `Cc1nnn(C)c1-c1cnc2c3cnc(Cl)cc3n([C@H](c3ccc(F)cc3)C3CCOCC3)c2c1` [Example 322]: less than 10 nM.
On to `[2H]C([2H])([2H])c1nnn(C)c1-c1cnc2c3c(OC)nc(Cl)cc3n([C@H](c3ncccc3F)C3CCOCC3)c2c1` [Example 305, 11-Chloro-8-[(S)-(3-fluoropyridin-2-yl)(oxan-4-yl)methyl]-13-methoxy-5-[4-(^2H3)methyl-1-methyl-1H-1,2,3-triazol-5-yl]-3,8,12-triazatricyclo[7.4.0.0^2,^7]trideca-1(9),2(7),3,5,10,12-hexaene], for which the IC50 is less than 10 nM.
With `Cc1nnn(C)c1-c1cnc2c3ccnc(N4CCN(C)CC4)c3n([C@H](c3ccccc3)C3CCOCC3)c2c1` [Example 8, 5-(Dimethyl-1H-1,2,3-triazol-5-yl)-10-(4-methylpiperazin-1-yl)-8-[(S)-oxan-4-yl(phenyl)methyl]-3,8,11-triazatricyclo[7.4.0.0^2,^7]trideca-1(13),2(7),3,5,9,11-hexaene], the IC50 is less than 10 nM.
With `Cc1nnn(C)c1-c1cnc2c3ccc(N4CCN(S(=O)(=O)N(C)C)CC4)nc3n([C@H](c3ccccc3F)C3CCOCC3)c2c1` [Example 269, 4-[5-(Dimethyl-1H-1,2,3-triazol-5-yl)-8-[(S)-(2-fluorophenyl)(oxan-4-yl)methyl]-3,8,10-triazatricyclo[7.4.0.0^2,^7]trideca-1(13),2(7),3,5,9,11-hexaen-11-yl]-N,N-dimethylpiperazine-1-sulfonamide], the IC50 is less than 1 nM.
Take `Cc1nnn(C)c1-c1cnc2c3ccc(N4CCN(C)CC4)nc3n([C@H](c3ccccc3F)C3CCOCC3)c2c1` [Example 231, 5-(Dimethyl-1H-1,2,3-triazol-5-yl)-8-[(S)-(2-fluorophenyl)(oxan-4-yl)methyl]-11-(4-methylpiperazin-1-yl)-3,8,10-triazatricyclo[7.4.0.0^2,^7]trideca-1(13),2(7),3,5,9,11-hexaene]: the IC50 is less than 10 nM.
On to `Cc1nnn(C)c1-c1cnc2c3ccc(N4CCS(=O)(=O)C(C)C4)nc3n([C@H](c3ccccc3)C3CCOCC3)c2c1` (single isomer, unassigned; diastereomer b) [Example 218], for which the IC50 was less than 1 nM.
Regarding `COc1ncc(S(C)(=O)=O)c2c1c1ncc(-c3c(C)noc3C)cc1n2[C@H](c1ccc(F)cc1)C1CCOCC1` [Example 49, 5-(Dimethyl-1,2-oxazol-4-yl)-8-[(S)-(4-fluorophenyl)(oxan-4-yl)methyl]-10-methanesulfonyl-13-methoxy-3,8,12-triazatricyclo[7.4.0.0^2,^7]trideca-1(13),2(7),3,5,9,11-hexaene], the IC50 is less than 1 nM.
For the compound `Cc1noc(C)c1-c1cnc2c3cnc(Cl)cc3n([C@H](c3ccc(F)cc3)C3CCOCC3)c2c1` [Example 326], the IC50 was less than 10 nM.
`[2H]C([2H])([2H])c1nnn(C)c1-c1cnc2c3ccc(N4CCN(C5CC5)CC4)nc3n([C@H](c3ccccc3)C3CCOCC3)c2c1` [Example 151, 11-(4-Cyclopropylpiperazin-1-yl)-5-[4-(^2H3)methyl-1-methyl-1H-1,2,3-triazol-5-yl]-8-[(S)-oxan-4-yl(phenyl)methyl]-3,8,10-triazatricyclo[7.4.0.0^2,^7]trideca-1(9),2(7),3,5,10,12-hexaene]: the IC50 is less than 10 nM.
The figure for `[2H]C([2H])([2H])c1nnn(C)c1-c1cnc2c3c(OC)ncc(S(C)(=O)=O)c3n([C@@H](c3ccccc3)C3CCC(F)(F)CC3)c2c1` [Example 82, 8-[(R)-(4,4-Difluorocyclohexyl)(phenyl)methyl]-10-methanesulfonyl-13-methoxy-5-[4-(^2H3)methyl-1-methyl-1H-1,2,3-triazol-5-yl]-3,8,12-triazatricyclo[7.4.0.0^2,^7]trideca-1(13),2(7),3,5,9,11-hexaene] is less than 1500 nM.
On to `[2H]C([2H])([2H])c1nnn(C)c1-c1cnc2c3c(NCC(F)(F)F)cncc3n(C(c3ncccc3F)C3CCOCC3)c2c1` (stereo not drawn) [Example 303, 8-[(3-Fluoropyridin-2-yl)(oxan-4-yl)methyl]-5-[4-(^2H3)methyl-1-methyl-1H-1,2,3-triazol-5-yl]-N-(2,2,2-trifluoroethyl)-3,8,11-triazatricyclo[7.4.0.0^2,^7]trideca-1(9),2(7),3,5,10,12-hexaen-13-amine], for which the IC50 was less than 10 nM.
Turning to `[2H]C([2H])([2H])c1nnn(C)c1-c1cnc2c3cc(Cl)cnc3n([C@H](c3ccccc3)C3CCOCC3)c2c1` [Example 347, 12-Chloro-5-[4-(^2H3)methyl-1-methyl-1H-1,2,3-triazol-5-yl]-8-[(S)-oxan-4-yl(phenyl)methyl]-3,8,10-triazatricyclo[7.4.0.0^2,^7]trideca-1(13),2(7),3,5,9,11-hexaene], the IC50 is less than 1500 nM.
For the compound `[2H]C([2H])([2H])c1nnn(C)c1-c1cnc2c3c(NCC(F)F)ncc(S(C)(=O)=O)c3n([C@H](c3ccccc3)C3CCOCC3)c2c1` [Example 117, N-(2,2-Difluoroethyl)-10-methanesulfonyl-5-[4-(^2H3)methyl-1-methyl-1H-1,2,3-triazol-5-yl]-8-[(S)-oxan-4-yl(phenyl)methyl]-3,8,12-triazatricyclo[7.4.0.0^2,^7]trideca-1(13),2(7),3,5,9,11-hexaen-13-amine], the IC50 was less than 10 nM.
